In PubChem BioAssay (NCI):
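Where inhibition never reached the appropriate level, the endpoint shown equals the highest concentration tested. Otherwise, values were interpolated linearly from a five-concentration, 48-hour dose response in 96-well plates. Definition used: TGI = concentration required for complete inhibition of growth.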

Key:
Test in all cases: NCI tumour cell line growth inhibition, 48 h
COLO 205 colon = test system: COLO 205 colon
U251 CNS = test system: U251 CNS
TK-10 renal = test system: TK-10 renal
RXF 393 renal = test system: RXF 393 renal
SW-620 colon = test system: SW-620 colon
MDA-MB-231 breast = test system: MDA-MB-231 breast
KM12 colon = test system: KM12 colon
NCI-H460 lung = test system: NCI-H460 lung
MOLT-4 leukemia = test system: MOLT-4 leukemia
EKVX NSCLC = test system: EKVX NSCLC

| SMILES | TGI (COLO 205 colon) [µM] | TGI (U251 CNS) [µM] | TGI (TK-10 renal) [µM] | TGI (RXF 393 renal) [µM] | TGI (SW-620 colon) [µM] | TGI (MDA-MB-231 breast) [µM] | TGI (KM12 colon) [µM] | TGI (NCI-H460 lung) [µM] | TGI (MOLT-4 leukemia) [µM] | TGI (EKVX NSCLC) [µM] |
| --- | --- | --- | --- | --- | --- | --- | --- | --- | --- | --- |
| CC(=O)NC(Cc1ccc(OP(=O)(OCc2ccc([N+](=O)[O-])o2)N(C)CCCCCl)cc1)C(=O)NC(C)c1ccc(OCC2CCCCC2)c(C(N)=O)c1 (stereo not drawn) | 3.68 | 6.49 | 32 | 5.68 | 14.2 | 4.79 | 8.71 | 15.2 | 26.3 | – |
| C#CCn1c(=O)c(Cl)cn(/C(=C/C(=O)OCC)C(=O)OCC)c1=O | 2.5 | 35 | 8.09 | 4.18 | 5.46 | 35.1 | > 70.5 | > 100 | > 23.9 | 34.3 |
| Clc1c(C(Cl)(Cl)Cl)nsc1N1CCCCC1 | 30.5 | > 100 | > 100 | 32.3 | > 100 | 77.5 | 55.7 | > 100 | 37.3 | 79.7 |
| Nn1c(Cc2ccccc2)n[nH]c1=O | > 100 | > 100 | > 100 | – | > 100 | > 100 | > 100 | – | > 100 | > 100 |
| Cc1nc2ccccc2n1Cc1nnc(N)o1 | > 100 | > 100 | > 100 | > 100 | > 100 | > 100 | > 100 | > 100 | > 100 | > 100 |
| O=C(OCc1ccccc1)N1CCN(C(=O)OCc2ccccc2)CCN(C(=O)OCc2ccccc2)CCN(C(=O)OCc2ccccc2)CCN(C(=O)OCc2ccccc2)CC1 | > 100 | > 100 | > 100 | – | > 100 | > 100 | > 100 | > 100 | > 100 | > 100 |
| CCOc1ccc2nc(NC(NC(=O)c3cccnc3)(C(F)(F)F)C(F)(F)F)sc2c1 | > 100 | > 100 | > 100 | 61.1 | > 100 | > 100 | > 100 | > 100 | 55.5 | 79.4 |
| CCOC(=O)C(C(=O)OCC)=C1NC2(c3ccccc3Nc3ccc(C)cc32)C(C(=O)OC)S1 (stereo not drawn) | 57.9 | > 100 | > 100 | 70.6 | > 100 | – | > 100 | > 100 | > 100 | 80.9 |
| Oc1ccc(O)c(CNc2ccccc2)c1 | 37.4 | 44.2 | 39.1 | 19.5 | > 100 | 38.4 | 42.1 | 47 | > 100 | 43.4 |
| CC(=O)O[C@H]1C[C@H]2C(=S)Nc3ccccc3C(=S)N2C1 | > 100 | > 100 | > 100 | > 100 | > 100 | > 100 | > 100 | > 100 | > 100 | > 100 |
| CC(=O)OCC1OC(O/C=C(\CN=[N+]=[N-])C(C)=O)C(OC(C)=O)C(OC(C)=O)C1OC(C)=O (stereo not drawn) | 3.9 | 26.8 | 19.1 | – | 16.9 | 27.7 | 40.3 | 48.9 | 10.5 | 34.7 |
| O=C1ON=C2C3CC4CC12CC1(C3)C(=O)ON=C41 | > 100 | > 100 | – | > 100 | > 100 | > 100 | > 100 | > 100 | > 100 | > 100 |
| COC(=O)[C@H](Cc1ccccc1)NP(=O)(O)OCC1C=CC(n2cc(C)c(=O)[nH]c2=O)O1 (stereo partly drawn) | > 100 | > 100 | > 100 | > 100 | > 100 | > 100 | > 100 | > 100 | > 100 | > 100 |
| CSc1nc2c(=O)n(-c3ccccc3)c(=S)n(-c3ccccc3)c2s1 | > 100 | > 100 | > 100 | 94.4 | > 100 | > 100 | > 100 | > 100 | > 100 | – |
| CC1(C)CCC(=O)NC1CC(=O)CC1NC(=O)CCC1(C)C (stereo not drawn) | > 100 | > 100 | > 100 | > 100 | > 100 | > 100 | > 100 | > 100 | > 100 | > 100 |
| CCOC(=O)Cn1c(=O)c2cc(-c3ccccc3)cc3c(Cl)nc4c(OC)c(OC)cc1c4c32 | > 100 | > 100 | 99.4 | 30.7 | > 61.2 | > 100 | > 92.8 | 39.1 | 14.2 | > 59.2 |
| CCN(CC)CCCOc1cc2c(cc1OC)C(=O)N1CCC[C@H]1C=N2 | 38.6 | > 100 | > 100 | 60 | 33.2 | > 100 | 48.4 | > 100 | 50.2 | > 100 |
| CC(C)OC(=O)[C@@H](O)[C@H](CO)C1=CC([Si](C)(C)c2ccccc2)=CON1 | > 100 | > 100 | > 100 | > 100 | > 100 | > 100 | > 100 | > 100 | > 100 | > 100 |
| CCCCCCCCCCCCCCCCCCOCC(COP(=O)([O-])OCC[N+](C)(C)C)OC (stereo not drawn) | 21.2 | 42.8 | 41.5 | 42.2 | 47.9 | > 100 | 10.4 | 17.6 | 29.3 | 70.3 |
| N#Cc1nc(CCC(c2nc(C#N)c(N)o2)N2C(=O)c3ccccc3C2=O)oc1N (stereo not drawn) | > 100 | > 100 | > 100 | > 100 | > 100 | > 100 | > 100 | > 100 | > 100 | > 100 |
| O=C1c2ccccc2-c2nc(/C=C/c3ccccc3)cc3c2c1nc1ccccc13 | 69.8 | 57 | > 100 | > 100 | 85.6 | 74 | 68.4 | – | > 100 | > 100 |
| O=C1c2ccccc2C(=O)c2c(O)ccc(O)c21 | > 100 | > 100 | > 100 | > 100 | > 100 | – | > 100 | > 100 | > 100 | > 100 |

| SMILES | TGI (COLO 205 colon) [µM] | TGI (U251 CNS) [µM] | TGI (TK-10 renal) [µM] | TGI (RXF 393 renal) [µM] | TGI (SW-620 colon) [µM] | TGI (MDA-MB-231 breast) [µM] | TGI (KM12 colon) [µM] | TGI (NCI-H460 lung) [µM] | TGI (MOLT-4 leukemia) [µM] | TGI (EKVX NSCLC) [µM] |
| --- | --- | --- | --- | --- | --- | --- | --- | --- | --- | --- |
| c1ccc2c(c1)CC1COc3ccccc3C1O2 (stereo not drawn) | > 100 | > 100 | > 100 | – | > 100 | > 100 | > 100 | – | > 100 | > 100 |
| Cc1cc2nc(N3C(=O)/C(=C/c4ccc(Cl)cc4)N=C3c3ccccc3)sc2cc1C | 43.3 | 84.7 | > 100 | 57.9 | > 100 | > 100 | 92.3 | > 100 | > 100 | 91.2 |
| N#Cc1ccc(Oc2nc3ccc(C(F)(F)F)cc3nc2-c2ccccc2)cc1 | 50.9 | 30.9 | 33.6 | 77.8 | 35.7 | 36.8 | 48.6 | 31.4 | 43.6 | 32.5 |
| CC(Cc1ccccc1)NC1=NCCO1 (stereo not drawn) | 34.5 | 58 | – | > 100 | > 100 | 30.1 | – | 36.6 | 77.9 | > 100 |
| CC(NC(C#N)CC12CC3CC(CC(C3)C1)C2)c1ccccc1 (stereo not drawn) | > 100 | > 100 | > 100 | – | > 100 | > 100 | – | 67.1 | > 100 | > 100 |
| c1ccc2nc(CCC3CCCCN3)ccc2c1 (stereo not drawn) | 31.5 | > 100 | > 100 | > 100 | > 100 | > 100 | > 100 | > 100 | – | > 100 |
| Cc1nc(C(N)=S)sc1C(=O)C/C(=N/N)C(=O)Nc1ccc(Cl)cc1 | – | > 100 | > 100 | > 100 | > 100 | > 100 | > 100 | > 100 | > 100 | > 100 |
| NC(=O)c1nnsc1NC=O | > 100 | > 100 | – | > 100 | > 100 | > 100 | > 100 | > 100 | > 100 | > 100 |
| CC(C)C(=O)/C=C/c1ccc(Cl)c(Cl)c1 | 52.3 | 30.7 | 28.8 | 33.5 | 36.3 | – | 29 | 48 | > 100 | 51.4 |
| CCN(CC)C(=O)N1CN(c2ccccc2)C2(CCN(CCCSc3ccc(F)cc3)CC2)C1=O | – | 26.8 | 31.5 | 29.7 | 43 | – | 25.3 | – | 12.5 | 33.6 |
| CCOC(=O)CSc1[nH]c(NC(=S)Nc2ccccc2)c(C(N)=O)c1C(N)=O | > 10 | – | > 10 | > 10 | > 10 | > 10 | > 10 | – | > 10 | > 10 |
| CCOP(=O)(OCC)C1=NC=CC=CC1n1c(-c2ccccc2)nn(CC)c1=O (stereo not drawn) | > 100 | > 100 | > 100 | > 100 | > 100 | – | > 100 | > 100 | > 100 | > 100 |
| c1ccc(N=C2SC3=NCCN3C2=Nc2ccccc2)cc1 | 33.3 | 33.5 | – | 32.2 | – | 60.5 | 29.7 | 50.6 | 77 | – |
| Cc1ccc(C(=O)Nc2ccc(S(=O)(=O)O)c3cc(S(=O)(=O)O)cc(S(=O)(=O)O)c23)cc1NC(=O)c1cccc(NC(=O)Nc2cccc(C(=O)Nc3cc(C(=O)Nc4ccc(S(=O)(=O)O)c5cc(S(=O)(=O)O)cc(S(=O)(=O)O)c45)ccc3C)c2)c1 (tested in a mixture with another compound) | > 50 | > 50 | – | > 50 | > 50 | > 50 | > 50 | > 50 | > 50 | > 50 |
| COC(=O)c1ccccc1C1CN=NC12Cc1cccc(C)c1C2=O (stereo not drawn) | – | > 100 | > 100 | > 100 | > 100 | > 100 | > 100 | > 100 | > 100 | > 100 |
| O=C1C(NCCN2CCOCC2)=C(Cl)C(=O)c2ncccc21 | – | 2.23 | 2.78 | 1.4 | 1.01 | 4.71 | 2.61 | 1.71 | 5.69 | 2.79 |
| COc1cc(C2c3cc4c(cc3[C@@H](Nc3cccc([N+](=O)[O-])c3)C3COC(=O)[C@H]23)OCO4)cc(OC)c1O (stereo partly drawn) | 18.1 | – | – | 7.41 | > 65.4 | – | 16.9 | 1.72 | 3.37 | > 38.2 |
| NC1CC(=O)c2sccc21 (stereo not drawn) | > 100 | > 100 | > 100 | > 100 | > 100 | > 100 | > 100 | – | > 100 | > 100 |
| CCN(CC)CCCC(C)NC(=O)c1ccc2c(c1)C(=O)c1ccccc1C2=O (stereo not drawn) | 23.3 | 50.4 | 66.5 | 42.8 | 43.1 | – | 35.7 | 39.8 | 52.8 | 55.8 |
| C#CC(O)/C=C/C(O)CCCC(O)CC#CC(O)C#CC(O)CCCC(O)/C=C/CCCC(=O)CCCCCCCCCCCCCCCC(O)C(O)C#CC(=O)O (stereo not drawn) | > 50 | > 50 | > 50 | > 50 | – | > 50 | > 50 | > 50 | > 50 | > 50 |
| O=C1CCCC2=C1CC1=C(CCCC1=O)N2c1ccccc1 | – | > 100 | > 100 | > 100 | > 100 | – | > 100 | > 100 | > 100 | > 100 |
| CC(C)(C)c1ccc(C(C)(C)C)c(N2C(=O)C3ON=C(c4ccc([N+](=O)[O-])cc4)C3C2=O)c1 (stereo not drawn) | > 25 | – | > 25 | > 25 | > 25 | – | > 25 | > 25 | > 25 | > 25 |
